Earlier results, collected in patent US20080260683A1, “Rodenticide” (priority 2004, published 2008).

Row | SMILES | solubility in water
1 | O=c1oc2ccccc2c(O)c1C1CC(c2ccc(OCc3ccc(C(F)(F)F)cc3)cc2)Cc2ccccc21 (stereo not shown) [flocoumafen] | insoluble or weakly soluble in water
2 | O=c1oc2ccccc2c(O)c1C1CC(c2ccc(-c3ccc(Br)cc3)cc2)Cc2ccccc21 (stereo not shown) [Brodifacoum, brodifacoum] | insoluble or weakly soluble in water
3 | O=c1sc2ccccc2c(O)c1C1CC(c2ccc(-c3ccc(Br)cc3)cc2)Cc2ccccc21 (stereo not shown) [difethialone] | insoluble or weakly soluble in water
4 | O=c1oc2ccccc2c(O)c1C(CC(O)c1ccc(-c2ccc(Br)cc2)cc1)c1ccccc1 (stereo not shown) [bromadiolone] | insoluble or weakly soluble in water
